Experimental data from the NIST ThermoML archive (doi:10.1021/je900437b).

Experiment: xn = mol fraction of the nth substance listed
Conditions: 101 kPa, Liquid; for speed of sound: Sing-around technique in a fixed-path interferometer; for mass density: Vibrating tube method

OCCN(CCO)CCO [triethanolamine] + NCCO
Conditions | mass density [kg/m3] | speed of sound [m/s]
298.15 K, x2 = 0 | 1120.82 | 1610.5
298.15 K, x2 = 0.1159 | 1116.38 | 1625.2
298.15 K, x2 = 0.2165 | 1111.37 | 1637.8
298.15 K, x2 = 0.3017 | 1106.52 | 1648.4
298.15 K, x2 = 0.3788 | 1101.52 | 1658.1
298.15 K, x2 = 0.4492 | 1096.35 | 1666.8
298.15 K, x2 = 0.5121 | 1091.14 | 1674.3
298.15 K, x2 = 0.6192 | 1080.56 | 1686.4
298.15 K, x2 = 0.7099 | 1069.5 | 1695.9
298.15 K, x2 = 0.7849 | 1058.49 | 1702.7
298.15 K, x2 = 0.8509 | 1046.99 | 1708
298.15 K, x2 = 0.907 | 1035.53 | 1712.1
298.15 K, x2 = 0.9561 | 1023.91 | 1715.6
303.15 K, x2 = 0 | 1118.06 | 1600.5
303.15 K, x2 = 0.1159 | 1113.44 | 1615.2
303.15 K, x2 = 0.2165 | 1108.35 | 1628
303.15 K, x2 = 0.3017 | 1103.4 | 1638.7
303.15 K, x2 = 0.3788 | 1098.32 | 1648.3
303.15 K, x2 = 0.4492 | 1093.05 | 1656.7
303.15 K, x2 = 0.5121 | 1087.76 | 1663.9
303.15 K, x2 = 0.6192 | 1077.07 | 1675.3
303.15 K, x2 = 0.7099 | 1065.88 | 1683.4
303.15 K, x2 = 0.7849 | 1054.74 | 1689.1
303.15 K, x2 = 0.8509 | 1043.15 | 1693.5
303.15 K, x2 = 0.907 | 1031.61 | 1697.1
303.15 K, x2 = 0.9561 | 1019.93 | 1700.3
308.15 K, x2 = 0 | 1115.26 | 1595.5
308.15 K, x2 = 0.1159 | 1110.42 | 1610
308.15 K, x2 = 0.2165 | 1105.26 | 1622.1
308.15 K, x2 = 0.3017 | 1100.25 | 1632
308.15 K, x2 = 0.3788 | 1095.08 | 1640.8
308.15 K, x2 = 0.4492 | 1089.75 | 1648.6
308.15 K, x2 = 0.5121 | 1084.39 | 1655.1
308.15 K, x2 = 0.6192 | 1073.56 | 1665
308.15 K, x2 = 0.7099 | 1062.26 | 1671.8
308.15 K, x2 = 0.7849 | 1051.01 | 1676.7
308.15 K, x2 = 0.8509 | 1039.31 | 1680.6
308.15 K, x2 = 0.907 | 1027.72 | 1683.5
308.15 K, x2 = 0.9561 | 1015.99 | 1685.9
313.15 K, x2 = 0 | 1112.4 | 1587
313.15 K, x2 = 0.1159 | 1107.47 | 1601.8
313.15 K, x2 = 0.2165 | 1102.16 | 1613.9
313.15 K, x2 = 0.3017 | 1097.05 | 1623.6
313.15 K, x2 = 0.3788 | 1091.8 | 1631.9
313.15 K, x2 = 0.4492 | 1086.4 | 1639.2
313.15 K, x2 = 0.5121 | 1080.99 | 1645.2
313.15 K, x2 = 0.6192 | 1070.01 | 1654.6
313.15 K, x2 = 0.7099 | 1058.62 | 1661.1
313.15 K, x2 = 0.7849 | 1047.27 | 1665.1
313.15 K, x2 = 0.8509 | 1035.49 | 1667.6
313.15 K, x2 = 0.907 | 1023.83 | 1669
313.15 K, x2 = 0.9561 | 1012.03 | 1670
318.15 K, x2 = 0 | 1109.6 | 1578.8
318.15 K, x2 = 0.1159 | 1104.53 | 1593.8
318.15 K, x2 = 0.2165 | 1099.15 | 1605.9
318.15 K, x2 = 0.3017 | 1093.95 | 1614.8
318.15 K, x2 = 0.3788 | 1088.58 | 1622.6
318.15 K, x2 = 0.4492 | 1083.06 | 1629.4
318.15 K, x2 = 0.5121 | 1077.57 | 1635.1
318.15 K, x2 = 0.6192 | 1066.47 | 1643.9
318.15 K, x2 = 0.7099 | 1054.94 | 1649.5
318.15 K, x2 = 0.7849 | 1043.54 | 1652.8
318.15 K, x2 = 0.8509 | 1031.7 | 1654.6
318.15 K, x2 = 0.907 | 1019.92 | 1655.3
318.15 K, x2 = 0.9561 | 1008.07 | 1655.3
323.15 K, x2 = 0 | 1106.78 | 1570.6
323.15 K, x2 = 0.1159 | 1101.56 | 1585.9
323.15 K, x2 = 0.2165 | 1096.03 | 1597.2
323.15 K, x2 = 0.3017 | 1090.73 | 1605.9
323.15 K, x2 = 0.3788 | 1085.31 | 1613.5
323.15 K, x2 = 0.4492 | 1079.76 | 1620.1
323.15 K, x2 = 0.5121 | 1074.18 | 1625.6
323.15 K, x2 = 0.6192 | 1062.92 | 1633.2
323.15 K, x2 = 0.7099 | 1051.26 | 1637.5
323.15 K, x2 = 0.7849 | 1039.74 | 1639.8
323.15 K, x2 = 0.8509 | 1027.82 | 1641.3
323.15 K, x2 = 0.907 | 1016 | 1641.8
323.15 K, x2 = 0.9561 | 1004.09 | 1641
